Values quoted from earlier work, collected in patent publication US11345706B2, “Crystalline forms of Acalabrutinib” (Apotex Inc., priority 2017, dated 2022).

Biopharmaceutics Classification System (BCS) solubility classification: poorly soluble drug
pH-dependent solubility (pH values of greater than 4, reported in U.S. Pat. No. 9,796,721 B2): practically insoluble
SMILES: CC#CC(=O)N1CCC[C@H]1c1nc(-c2ccc(C(=O)Nc3ccccn3)cc2)c2c(N)nccn12 [Acalabrutinib, 4-{8-amino-3-[(2S)-1-(but-2-ynoyl)pyrrolidin-2-yl]imidazo[1,5-a]pyrazin-1-yl}-N-(pyridin-2-yl)benzamide]
